US7951598B2, “Differential hemolysis of a whole blood sample” (Roche Diagnostics Operations, Inc., priority 2006, dated 2011)

Assays:
[1] = tested on: red blood cells in EDTA-stabilized whole blood; test: Visual evaluation of hemolysis (time until hemolysate is clear); type: cell-based
Experimental: Whether the conditions for differential hemolysis are appropriate can be easily and preferably determined by using the following standardized procedure. A whole blood sample with a hematocrit of 40 is diluted 1:10 and mixed 1:1 with the candidate hemolysis reagent. The efficacy of a reagent for bringing about differential hemolysis is seen visually. Upon lysis of the erythrocytes the mixture becomes clear. If precipitation of sample constituents occurs the sample becomes turbid or viscous or both.
(§1) Solution A: Fresh EDTA-stabilized whole blood is diluted with 0.15 molar sodium chloride solution in the ratio 1:10 (50 μL EDTA-blood plus 450 μL sodium chloride solution).
In the case of the addition of a second compound, e.g. potassium iodide (1-Butyl-3-methyl pyridiniumchloride/KJ) the stated salt is added in an approximately equimolar amount.
Hemolysate is prepared by mixing solution A and B in equal volumes, e.g. 500 μL solution A plus 500 μL solution B.
After mixing the hemolysate is inspected visually for turbidometry and clearness immediately after mixing, after 1 minute, 2, 5, 6, 7, 20 and 40 minutes. The time until a clear solution is observed is recorded.

[2] = in vivo; cited from earlier work
[3] = in vitro; cited from earlier work
[4] = tested on: erythrocytes in whole blood; test: Microscopic evaluation of hemolysis, Trypane blue staining; type: cell-based; conditions: reagent 25%, 1 in 10 diluted whole blood
Experimental: The integrity of red blood cells can for example be easily assessed by appropriate life stains. In a preferred embodiment according to the present invention trypane blue is used in order to assess the integrity of a red blood cell, membrane. […] The membrane integrity of a red blood cell is easily assessed under the microscope after staining a sample with trypane blue. The percentage of disrupted red blood cells is calculated by counting intact red blood cells before and after the treatment, by then dividing the first number by the latter number and by then multiplying this value by 100. Red blood cells that are solubilized are referred to as lyzed red blood cells or as lyzed erythrocytes.
as §1
Solution B: A solution of the hemolysis reagent in 0.15 molar sodium chloride is prepared where the concentration of the hemolysis reagent is twice as high as the desired final concentration in the hemolysate, e.g. to get a final concentration of 25% of 1-Butyl-4-methylpyridinium tetrafluoroborate a solution of 50% ([…] salt plus 50 mL 0.15 molar sodium chloride in water) is prepared. […]

[5] = tested on: erythrocytes in whole blood; test: Microscopic evaluation of hemolysis, May-Grünwald staining; type: cell-based
Experimental: as §1
Solution B: A solution of the hemolysis reagent in 0.15 molar sodium chloride is prepared where the concentration of the hemolysis reagent is twice as high as the desired final concentration in the hemolysate, e.g. to get a final concentration of 25% of 1-Butyl-4-methylpyridinium tetrafluoroborate a solution of 50% ([…] salt plus 50 mL 0.15 molar sodium chloride in water) is prepared. In the case of the addition of a second anion, e.g. iodide (1-Butyl-3-methylpyridiniumchloride/KJ) the stated salt is added in an equimolar amount.
Hemolysate is prepared by mixing solution A and B in equal volumes, e.g. 20 μL solution A plus 20 μL solution B.
After mixing of the hemolysate a droplet is smeared on a microscope slide, air dried at room temperature and stained with May-Grünwald staining reagent (Merck Cat. No. 1.01424 May-Grünwald's Eosin Methylene Blue Solution).
Microscopy is performed by oil immersion light microscopy (magnification ×630).

[6] = final concentration 25% (weight/volume), whole blood final dilution 1:20
[7] = final concentration 12.5% (weight/volume)

Question: Which “clear after (min.)” value [1, 6] does the source give for `CCCC[n+]1cccc(C)c1.[Cl-]` [1-Butyl-3-methyl pyridiniumchloride] here?
Answer: Its value is “turbid”.

Question: With `C=CC[C@@H]1/C=C(\C)C[C@H](C)C[C@H](OC)[C@H]2O[C@@](O)(C(=O)C(=O)N3CCCC[C@H]3C(=O)O[C@H](/C(C)=C/[C@@H]3CC[C@@H](O)[C@H](OC)C3)[C@H](C)[C@@H](O)CC1=O)[C@H](C)C[C@@H]2OC` [Tacrolimus, tacrolimus] as the molecule, how does the therapeutic trough concentration [2] read?
Answer: The therapeutic trough concentration was 5 to 20 µg/L.

Question: And the “potency relative to cyclosporin” value [3]?
Answer: The value was “up to 100 times”.

Question: Which results are given for `CCCCCCCCOC[n+]1cccc(C(N)=O)c1.[Cl-]` [3-Carbamoyl-1-octyloxymethyl pyridiniumchloride]?
Answer: clear after (min.) ([1]; final concentration 1.5% (weight/volume)): immediately; clear after (min.) ([1]; final concentration 6.25% (weight/volume)): immediately; clear after (min.) [1, 7]: immediately

Question: With `CCCC[n+]1ccc(C)cc1.F[B-](F)(F)F` [1-Butyl-4-methylpyridinium tetrafluoroborate] as the molecule, how does the “light microscopy of hemolyzed whole blood, Trypane blue staining” value ([4]; 2.5 min incubation time (FIG. 4a)) read?
Answer: Its value is “Only few residual erythrocytes are left”.

Question: What about the “light microscopy of hemolyzed whole blood, Trypane blue staining” value ([4]; 15 min incubation time (FIG. 4b)) of the same molecule?
Answer: Its value is “No erythrocytes or membranes are left”.

Question: What about the “clear after (min.)” value ([1]; final concentration 6% (weight/volume)) of the same molecule?
Answer: Its value is “turbid”.

Question: And the “clear after” value [1, 7]?
Answer: The value was 40 min.

Question: What about the “clear after” value [1, 6] of the same molecule?
Answer: Its value is 20 min.

Question: And the “light microscopy of hemolyzed whole blood, May-Grünwald staining” value ([5]; reagent 25%, 1 in 10 diluted whole blood (FIG. 2))?
Answer: Its value is “No erythrocytes or membranes are left, nuclei are still intact”.

Question: With `CO[C@H]1C[C@@H]2CC[C@@H](C)[C@@](O)(O2)C(=O)C(=O)N2CCCC[C@H]2C(=O)O[C@H]([C@H](C)C[C@@H]2CC[C@@H](O)[C@H](OC)C2)CC(=O)[C@H](C)/C=C(\C)[C@@H](O)[C@@H](OC)C(=O)[C@H](C)C[C@H](C)/C=C/C=C/C=C/1C` [Sirolimus, sirolimus] as the molecule, how does the therapeutic trough concentration [2] read?
Answer: The therapeutic trough concentration was 5 to 15 µg/L.

Question: With `CCCCCCCC[n+]1ccccc1.[Cl-]` [N-Octylpyridiniumchloride] as the molecule, how does the “clear after” value [1, 6] read?
Answer: Its value is 2 min.

Question: For `CCCCCC[n+]1ccccc1.[Cl-]` [1-Hexylpyridiniumchloride], which “clear after (min.)” value [1, 7] is on record?
Answer: The value was “turbid”.

Question: What about the “clear after” value [1, 6] of the same molecule?
Answer: Its value is 7 min.

Question: Which therapeutic trough concentration [2] does the source give for `COc1c(C)c2c(c(O)c1C/C=C(\C)CCC(=O)OCCN1CCOCC1)C(=O)OC2` [MMF, mycophenolate mofetil] here?
Answer: The therapeutic trough concentration was 1000 to 3500 µg/L.

Question: Which “clear after” value [1, 6] does the source give for `CCCCn1cc[n+](C)c1.F[B-](F)(F)F` [1-Butyl-3-methyl-imidazolium tetrafluoroborate] here?
Answer: The value was 20 min.

Question: With `O` [water, reference compound] as the molecule, how does the “light microscopy of hemolyzed whole blood, May-Grünwald staining” value ([5]; hemolyzed with water, 1 in 10 diluted whole blood (FIG. 1)) read?
Answer: The value was “Erythrocyte membranes and nuclei are visible”.

Question: Which “clear after (min.)” value ([1]; final concentration 2.5% (weight/volume)) does the source give for `CCCCCCCC[N+]1(C)CCCC1.[Cl-]` [1-Methyl-1-octyl pyrrolidiniumchloride] here?
Answer: Its value is “turbid”.

Question: What about the “clear after (min.)” value [1, 6] of the same molecule?
Answer: The value was “immediately”.

Question: Which “clear after (min.)” value [1, 6] does the source give for `CCCCCCCCOS(=O)(=O)[O-].CCCCn1cc[n+](C)c1` [1-Butyl-3-methyl-imidazoliumoctylsulfate] here?
Answer: The value was “immediately”.
